Data published in ChEMBL document CHEMBL1201862, “PubChem BioAssay data set” (2004).
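In this assay, cells in 96-well plates receive the compound at five concentrations for 48 hours. Endpoints are linearly interpolated between the surrounding concentrations. GI50 = concentration required for 50% inhibition of growth.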 Active and inactive are the calls of the source. No stated cut-off is given here; in the data, active = GI50 up to about 1.1 µM and inactive = higher.

Key:
Assay in all cases: growth of human tumour cells (NCI), 48 h
[1] = system: COLO 205
[2] = system: SW-620
[3] = system: TK-10
[4] = system: OVCAR-8
[5] = system: BT-549
[6] = system: HCT-116
[7] = system: UACC-257
[8] = system: CCRF-CEM
[9] = system: MDA-MB-435
[10] = system: M14
[11] = system: RXF 393
[12] = system: SNB-75
[13] = system: HOP-62
[14] = system: 786-0
[15] = system: HCC 2998
[16] = system: A549
[17] = system: IGROV-1
[18] = system: Malme-3M
[19] = system: SK-MEL-2
[20] = system: LOX IMVI
[21] = system: UO-31
[22] = system: OVCAR-5
[23] = system: PC-3
[24] = system: SF-539
[25] = system: SK-MEL-5
[26] = system: SN12C
[27] = system: NCI-H23
[28] = system: SNB-19
[29] = system: Hs-578T
[30] = system: ACHN
[31] = system: OVCAR-3
[32] = system: MDA-N
[33] = system: EKVX
[34] = system: K562
[35] = system: DU-145
[36] = system: SK-MEL-28
[37] = system: U-251
[38] = system: KM12
[39] = system: NCI/ADR-RES
[40] = system: HCT-15
[41] = system: NCI-H460
[42] = system: NCI-H226
[43] = system: NCI-H522
[44] = system: SR
[45] = system: MOLT-4
[46] = system: A498
[47] = system: HT-29
[48] = system: RPMI-8226
[49] = system: OVCAR-4
[50] = system: HOP-92
[51] = system: SF-268
[52] = system: MDA-MB-231
[53] = system: UACC-62
[54] = system: SF-295
[55] = system: SK-OV-3
[56] = system: HL-60
[57] = system: CAKI-1
[58] = system: MCF7
[59] = system: T47D

With COc1cc2c(cc1OCCCC(=O)Nc1cc(C(=O)Nc3cc(C(=O)Nc4cc(C(=O)NCCCN(C)C)n(C)c4)n(C)c3)n(C)c1)N=C[C@@H]1CCCN1C2=O the GI50 [1] was 1.61 µM (inactive), the GI50 [2] was 1.69 µM (inactive) and the GI50 [3] was 1.87 µM (inactive). For the same compound, the GI50 [4] was 1.79 µM (inactive), the GI50 [5] was 1.96 µM (inactive) and the GI50 [6] was 1.69 µM (inactive). For the same compound, the GI50 [7] was 1.97 µM (inactive), the GI50 [8] was 0.348 µM (active) and the GI50 [9] was 1.79 µM (inactive). For the same compound, the GI50 [10] was 1.66 µM (inactive), the GI50 [11] was 1.66 µM (inactive) and the GI50 [12] was 3.3 µM (inactive). For the same compound, the GI50 [13] was 3.56 µM (inactive), the GI50 [14] was 1.12 µM (active) and the GI50 [15] was 14.2 µM (inactive). For the same compound, the GI50 [16] was 11.2 µM (inactive), the GI50 [17] was 3.1 µM (inactive) and the GI50 [18] was 1.82 µM (inactive). The GI50 [19] was 2.53 µM (inactive), the GI50 [20] was 0.933 µM (active) and the GI50 [21] was 1.66 µM (inactive). For the same compound, the GI50 [22] was 3.16 µM (inactive), the GI50 [23] was 2.28 µM (inactive) and the GI50 [24] was 3.42 µM (inactive). The GI50 [25] was 2.24 µM (inactive), the GI50 [26] was 1.2 µM (inactive) and the GI50 [27] was 1.77 µM (inactive). The GI50 [28] was 6.32 µM (inactive), the GI50 [29] was 2.94 µM (inactive) and the GI50 [30] was 1.61 µM (inactive). For the same compound, the GI50 [31] was 2.02 µM (inactive), the GI50 [32] was 1.84 µM (inactive) and the GI50 [33] was 2.89 µM (inactive). For the same compound, the GI50 [34] was 2.19 µM (inactive), the GI50 [35] was 3.47 µM (inactive) and the GI50 [36] was 2.15 µM (inactive). The GI50 [37] was 1.6 µM (inactive), the GI50 [38] was 16.3 µM (inactive) and the GI50 [39] was 2.22 µM (inactive). The GI50 [40] was 1.82 µM, the GI50 [41] was 3.21 µM (inactive) and the GI50 [42] was 5.56 µM (inactive). For the same compound, the GI50 [43] was 0.224 µM (active), the GI50 [44] was 0.367 µM (active) and the GI50 [45] was 3.2 µM (inactive). For the same compound, the GI50 [46] was 13.2 µM (inactive), the GI50 [47] was 1.91 µM (inactive) and the GI50 [48] was 1.67 µM (inactive). The GI50 [49] was 1.95 µM (inactive), the GI50 [50] was 1.88 µM (inactive) and the GI50 [51] was 1.63 µM (inactive). The GI50 [52] was 2.3 µM (inactive), the GI50 [53] was 2.19 µM (inactive) and the GI50 [54] was 12.2 µM (inactive). For the same compound, the GI50 [55] was 14.6 µM (inactive), the GI50 [56] was 1.16 µM (inactive) and the GI50 [57] was 0.587 µM (active). For the same compound, the GI50 [58] was 2.16 µM (inactive) and the GI50 [59] was 1.79 µM (inactive).
O=C1CN2CCN(CC2)CC(=O)Nc2ccc(cc2)S(=O)(=O)c2ccc(cc2)NC(=O)CN2CCN(CC2)CC(=O)Nc2ccc(cc2)S(=O)(=O)c2ccc(cc2)N1 was tested, and the GI50 [1] was 40.7 µM (inactive), the GI50 [2] was 14.1 µM (inactive) and the GI50 [3] was > 92.7 µM (inactive). For the same compound, the GI50 [4] was 38.8 µM (inactive), the GI50 [5] was 31.5 µM (inactive) and the GI50 [6] was 14.8 µM (inactive). For the same compound, the GI50 [7] was > 100 µM (inactive), the GI50 [8] was 0.31 µM (active) and the GI50 [9] was 35.2 µM (inactive). The GI50 [10] was 25.4 µM (inactive), the GI50 [11] was 55.2 µM (inactive) and the GI50 [12] was > 100 µM (inactive). For the same compound, the GI50 [13] was 44.4 µM (inactive), the GI50 [14] was 33.3 µM (inactive) and the GI50 [15] was > 61.9 µM (inactive). The GI50 [16] was > 63.2 µM (inactive), the GI50 [17] was 13.8 µM (inactive) and the GI50 [18] was 15.8 µM (inactive). The GI50 [19] was > 71.1 µM (inactive), the GI50 [20] was 11 µM (inactive) and the GI50 [21] was > 92.5 µM (inactive). The GI50 [22] was 37.3 µM (inactive), the GI50 [23] was > 100 µM (inactive) and the GI50 [24] was 23.3 µM (inactive). For the same compound, the GI50 [25] was 31.8 µM (inactive), the GI50 [26] was > 97.5 µM (inactive) and the GI50 [27] was 44 µM (inactive). The GI50 [28] was > 100 µM (inactive), the GI50 [29] was > 100 µM (inactive) and the GI50 [30] was 66.4 µM (inactive). The GI50 [31] was 27.9 µM (inactive), the GI50 [32] was 41.8 µM (inactive) and the GI50 [33] was > 100 µM (inactive). For the same compound, the GI50 [34] was 15.8 µM (inactive), the GI50 [35] was 51.6 µM (inactive) and the GI50 [36] was 48.4 µM (inactive). For the same compound, the GI50 [37] was 13.7 µM (inactive), the GI50 [38] was 32.2 µM (inactive) and the GI50 [39] was 37.3 µM (inactive). The GI50 [40] was 13.4 µM, the GI50 [41] was 19.5 µM (inactive) and the GI50 [42] was 64.7 µM (inactive). For the same compound, the GI50 [43] was 4.71 µM (inactive), the GI50 [44] was 4.56 µM (inactive) and the GI50 [45] was 6.81 µM (inactive). For the same compound, the GI50 [46] was > 100 µM (inactive), the GI50 [47] was 15 µM (inactive) and the GI50 [48] was 10.1 µM (inactive). The GI50 [49] was > 100 µM (inactive), the GI50 [50] was > 100 µM (inactive) and the GI50 [51] was 19 µM (inactive). The GI50 [52] was 16.1 µM (inactive), the GI50 [53] was 40.1 µM (inactive) and the GI50 [54] was > 88.7 µM (inactive). For the same compound, the GI50 [55] was > 100 µM (inactive), the GI50 [56] was 0.557 µM (active) and the GI50 [57] was > 47.8 µM (inactive). For the same compound, the GI50 [58] was 18.1 µM (inactive) and the GI50 [59] was 67.6 µM (inactive).
